BindingDB's records for doi:10.1016/j.bmcl.2013.02.064 (Toronto General Research Institute, 2013)

Test: Inhibition of FCgamma receptor in human PBMC assessed as inhibition of opsonized RBC phagocytosis incubated for 1 hr prior to RBC addition measured after 2 hrs by monocyte monolayer assay

Cc1cc(SSc2cc(C)nn2-c2ccccc2)n(-c2ccccc2)n1
IC50: 100 nM
